Assay [1] has as its system up-regulation of ICAM-1 (CD54) by IFNγ in U937 human monocytic cells. The experiment in a line: U937 IFNγ ICAM1 FACS Assay. It is filed as cell-based. As to conditions: Homo sapiens, U-937, U937 cells stimulated with IFNγ, ICAM-1 expression by FACS; read-out: IC50, Example 44. In a few lines: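 Readout was the geometric-mean APC anti-ICAM-1 signal by FACS on live U937 monocytic cells, with % live cells also recorded. Cells were exposed to compounds (8 points, 3-fold dilutions, duplicates) for 30 min at 37 °C before 18–24 h of IFNγ stimulation. EC50 values were computed from the dose curve.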
Background: A flow cytometer gives signals particle by particle.

Assay [2] has as its system IL-4 stimulated expression of CD23 in human Ramos B cells (JAK-1 and JAK-3). The experiment in a line: Assay for Ramos B-Cell Line Stimulated with IL-4 (CD23 upregulation, FACS). It is filed as cell-based. As to conditions: Homo sapiens, Ramos, Ramos B cells stimulated with IL-4, CD23 expression by FACS; read-out: IC50, Example 41. In short, it runs like this:
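Compound effect on IL-4-driven JAK1/JAK3 signalling is gauged as CD23 surface expression, measured by FACS after 20-24 h of stimulation with IL-4 at 50 units/mL final. A 1 h compound pre-treatment at 37 °C precedes stimulation, and IC50 is derived from the results.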

The record followed here is patent US11827628B2, “Compositions and methods for inhibition of the JAK pathway” (Rigel Pharmaceuticals, Inc., priority 2005, dated 2023).

For `COc1ccc(Nc2nc(Nc3cc(C)c(F)c(S(N)(=O)=O)c3)ncc2F)cc1Cl` [VI-15, N2-(3-Aminosulfonyl-4-fluoro-5-methylphenyl)-N4-(3-chloro-4-methoxyphenyl)-5-fluoro-2,4-pyrimidinediamine], the IC50 in assay [1] stood at 767 nM; in assay [2] it was 45 nM.
Regarding `COc1ccc(Nc2nc(Nc3cc(C)c(Cl)c(S(N)(=O)=O)c3)ncc2F)cc1Cl` [VI-17, N2-(3-Aminosulfonyl-4-chloro-5-methylphenyl)-N4-(3-chloro-4-methoxyphenyl)-5-fluoro-2,4-pyrimidinediamine], the IC50 in assay [1] was determined as 454 nM; in assay [2] it was 43.4 nM.
`Cc1cc(Nc2ncc(F)c(Nc3ccc(OC(F)(F)F)c(Cl)c3)n2)cc(S(N)(=O)=O)c1Cl` [VI-18, N2-(3-Aminosulfonyl-4-chloro-5-methylphenyl)-N4-(3-chloro-4-trifluoromethoxyphenyl)-5-fluoro-2,4-pyrimidinediamine]: the 50% inhibitory concentration (IC50) in assay [1] was 6060 nM; in assay [2], 257 nM.
In the case of `COc1ccc(Nc2nc(Nc3cccc(S(N)(=O)=O)c3)ncc2Br)cc1Cl` [VI-26, N2-(3-aminosulfonylphenyl)-5-bromo-N4-(3-chloro-4-methoxyphenyl)-2,4-pyrimidinediamine], the figures for the IC50 in assay [1] and in assay [2] were 257 nM and 44.4 nM, respectively.
Taken in the same sequence, the figures for `CNC(=O)OCc1cccc(Nc2nc(Nc3ccc(C)c(S(N)(=O)=O)c3)ncc2F)c1` [VI-49, N2-(3-Aminosulfonyl-4-methylphenyl)-5-fluoro-N4-[3-(methylaminocarbonyloxymethyl)phenyl]-2,4-pyrimidinediamine] were 2100 nM and 268 nM.
`Cc1ccc(Nc2ncc(F)c(Nc3ccc(C(F)(F)F)cc3)n2)cc1S(N)(=O)=O` [VI-50, N2-(3-Aminosulfonyl-4-methylphenyl)-5-fluoro-N4-(4-trifluoromethylphenyl)-2,4-pyrimidinediamine]: the IC50 in assay [1] stood at 1880 nM; in assay [2] it was 217 nM.
With `NS(=O)(=O)c1cccc(Nc2ncc(F)c(Nc3ccc(C(F)(F)F)cc3)n2)c1` [VI-51, N2-(3-Aminosulfonylphenyl)-5-fluoro-N4-(4-trifluoromethylphenyl)-2,4-pyrimidinediamine], the half-inhibitory concentration (IC50) in assay [1] turned out to be 2130 nM; in assay [2], 152 nM.
For `Cc1ccc(Nc2ncc(F)c(Nc3ccc(CO)cc3)n2)cc1S(N)(=O)=O` [VI-52, N2-(3-Aminosulfonyl-4-methylphenyl)-5-fluoro-N4-(4-hydroxymethylphenyl)-2,4-pyrimidinediamine], the IC50 worked out at 1740 nM in assay [1] and 168 nM in assay [2].
Taken in the same sequence, the figures for `C#CCOc1ccc(Nc2nc(Nc3ccc(C)c(S(N)(=O)=O)c3)ncc2F)cc1` [VI-53, N2-(3-Aminosulfonyl-4-methylphenyl)-5-fluoro-N4-[4-(prop-2-ynyloxy)phenyl]-2,4-pyrimidinediamine] were 565 nM and 56.3 nM.
Regarding `C=Cc1ccc(Nc2nc(Nc3ccc(C)c(S(N)(=O)=O)c3)ncc2F)cc1` [VI-54, N2-(3-Aminosulfonyl-4-methylphenyl)-5-fluoro-N4-(4-vinylphenyl)-2,4-pyrimidinediamine], the IC50 was 1620 nM in assay [1] and 147 nM in assay [2].
For `C#CCOc1ccc(Nc2nc(Nc3ccc(Cl)c(S(N)(=O)=O)c3)ncc2F)cc1` [VI-55, N2-(3-Aminosulfonyl-4-chlorophenyl)-5-fluoro-N4-[4-(prop-2-ynyloxy)phenyl]-2,4-pyrimidinediamine], the figures for the half-maximal inhibitory concentration (IC50) in assay [1] and in assay [2] were 1370 nM and 122 nM, respectively.
On the same counts, the results for `C#CCOc1ccc(Nc2nc(Nc3ccc(C)c(S(N)(=O)=O)c3)ncc2F)cc1F` [VI-60, N2-(3-Aminosulfonyl-4-methylphenyl)-5-fluoro-N4-[3-fluoro-4-(prop-2-ynyloxy)phenyl]-2,4-pyrimidinediamine] are 410 nM and 86.9 nM.
Taken in the same sequence, the figures for `CC#CCOc1ccc(Nc2nc(Nc3ccc(C)c(S(N)(=O)=O)c3)ncc2F)cc1` [VI-61, N2-(3-Aminosulfonyl-4-methylphenyl)-N4-[4-(but-2-ynyloxy)phenyl]-5-fluoro-2,4-pyrimidinediamine] were 367 nM and 99 nM.
As to `C#CCOc1ccc(Nc2nc(Nc3ccc(C(C)C)c(S(N)(=O)=O)c3)ncc2F)cc1` [VI-63, N2-[3-Aminosulfonyl-4-(2-propyl)phenyl]-5-fluoro-N4-[4-(prop-2-ynyloxy)phenyl]-2,4-pyrimidinediamine], the results for the half-maximal inhibitory concentration (IC50) in assay [1] and in assay [2] were 1740 nM and 160 nM, respectively.
In the case of `C#CCNc1ccc(Nc2nc(Nc3ccc(C)c(S(N)(=O)=O)c3)ncc2F)cc1` [VI-65, N2-(3-Aminosulfonyl-4-methylphenyl)-5-fluoro-N4-[4-(prop-2-ynylamino)phenyl]-2,4-pyrimidinediamine], the results for the concentration for half-maximal inhibition (IC50) in assay [1] and in assay [2] were 964 nM and 90.6 nM, respectively.
Taken in the same sequence, the figures for `C#CCOc1ccc(Nc2nc(Nc3ccc(C)c(S(=O)(=O)NC)c3)ncc2F)cc1` [VI-68, 5-Fluoro-N2-(4-methyl-3-methylaminosulfonylphenyl)-N4-[4-(prop-2-ynyloxy)phenyl]-2,4-pyrimidinediamine] were 1810 nM and 102 nM.
As to `C#CCOc1ccc(Nc2nc(Nc3ccc(N4CCN(C)CC4)c(S(N)(=O)=O)c3)ncc2F)cc1` [VI-70, N2-[3-Aminosulfonyl-4-(1-methylpiperazin-4-yl)phenyl]-5-fluoro-N4-[4-(prop-2-ynyloxy)phenyl]-2,4-pyrimidinediamine], the figures for the concentration for half-maximal inhibition (IC50) in assay [1] and in assay [2] were 657 nM and 70.6 nM, respectively.
On the same counts, the results for `C#CCOC(=O)NCc1ccc(Nc2nc(Nc3cccc(S(N)(=O)=O)c3)ncc2F)cc1` [VI-74, N2-(3-Aminosulfonylphenyl)-5-fluoro-N4-{4-[(prop-2-ynyloxy)carbonylaminomethyl]phenyl}-2,4-pyrimidinediamine] are 3850 nM and 94.6 nM.
As for `NS(=O)(=O)c1cccc(Nc2ncc(F)c(Nc3ccc(CCCF)cc3)n2)c1` [VI-83, N2-(3-Aminosulfonylphenyl)-5-fluoro-N4-[4-(3-fluoropropyl)phenyl]-2,4-pyrimidinediamine], the concentration for half-maximal inhibition (IC50) in assay [1] came to 535 nM; in assay [2], 113 nM.
With `NS(=O)(=O)c1cccc(Nc2ncc(F)c(Nc3ccc(CCCO)cc3)n2)c1` [VI-86, N2-(3-Aminosulfonylphenyl)-5-fluoro-N4-[4-(3-hydroxypropyl)phenyl]-2,4-pyrimidinediamine], the IC50 in assay [1] is 487 nM; in assay [2], 153 nM.
On the same counts, the results for `NS(=O)(=O)c1cccc(Nc2ncc(F)c(Nc3ccc(CCCCO)cc3)n2)c1` [VI-89, N2-(3-Aminosulfonylphenyl)-5-fluoro-N4-[4-(4-hydroxybutyl)phenyl]-2,4-pyrimidinediamine] are 2040 nM and 132 nM.
`NS(=O)(=O)c1cccc(Nc2ncc(F)c(Nc3ccc(CCCCF)cc3)n2)c1` [VI-92, N2-(3-Aminosulfonylphenyl)-5-fluoro-N4-[4-(4-fluorobutyl)phenyl]-2,4-pyrimidinediamine]: the concentration for half-maximal inhibition (IC50) in assay [1] amounted to 1160 nM; in assay [2] it was 83.5 nM.
As to `NS(=O)(=O)c1cc(Nc2ncc(F)c(Nc3ccc(O)cc3)n2)ccc1F` [VI-100, N2-(3-Aminosulfonyl-4-fluorophenyl)-5-fluoro-N4-(4-hydroxyphenyl)-2,4-pyrimidinediamine], the half-maximal inhibitory concentration (IC50) in assay [1] turned out to be 4900 nM; in assay [2] it was 321 nM.
On to `Cc1ccc(Nc2ncc(F)c(Nc3ccc(O)cc3)n2)cc1S(N)(=O)=O` [VI-102, N2-(3-Aminosulfonyl-4-methylphenyl)-5-fluoro-N4-[4-hydroxyphenyl]-2,4-pyrimidinediamine], for which the IC50 in assay [1] stood at 2800 nM; in assay [2], 183 nM.
As for `COc1ccc(Nc2nc(Nc3cccc(S(N)(=O)=O)c3)ncc2F)cc1Cl` [VI-107, N2-(3-Aminosulfonylphenyl)-5-fluoro-N4-(4-methoxy-3-chlorophenyl]-2,4-pyrimidinediamine], the 50% inhibitory concentration (IC50) was determined as 856 nM in assay [1] and 159 nM in assay [2].
In the case of `NS(=O)(=O)c1cccc(Nc2ncc(F)c(Nc3ccc(Cl)c(Cl)c3)n2)c1` [VI-110, N2-(3-Aminosulfonylphenyl)-N4-(3,4-dichlorophenyl)-5-fluoro-2,4-pyrimidinediamine], the 50% inhibitory concentration (IC50) was determined as 5460 nM in assay [1] and 83.6 nM in assay [2].
Turning to `Cc1ccc(Nc2ncc(F)c(Nc3ccc(C)c(S(N)(=O)=O)c3)n2)cc1S(N)(=O)=O` [VI-114, N2,N4-Bis-(3-aminosulfonyl-4-methylphenyl)-5-fluoro-2,4-pyrimidinediamine], the IC50 is 33200 nM in assay [1] and 210 nM in assay [2].
In the case of `COc1ccc(Nc2nc(Nc3ccc(N4CCN(C)CC4)c(S(N)(=O)=O)c3)ncc2F)cc1Cl` [VI-116, N2-[3-Aminosulfonyl-4-(4-methylpiperazine-1-yl)phenyl]-N4-(3-chloro-4-methoxyphenyl)-5-fluoro-2,4-pyrimidinediamine], the IC50 in assay [1] is 673 nM; in assay [2], 31.1 nM.
For the compound `COc1ccc(Nc2nc(Nc3cccc(S(N)(=O)=O)c3)ncc2F)cn1` [VII-6, N2-(3-Aminosulfonylphenyl)-5-fluoro-N4-(2-methoxypyrid-5-yl)-2,4-pyrimidinediamine], the values for the IC50 in assay [1] and in assay [2] were 3650 nM and 102 nM, respectively.
For the compound `COc1ccc(Nc2nc(Nc3ccc(C)c(S(N)(=O)=O)c3)ncc2F)nc1N` [VII-9, N2-(3-Aminosulfonyl-4-methylphenyl)-N4-[2-amino-3-methoxypyrid-6-yl]-5-fluoro-2,4-pyrimidinediamine], the IC50 in assay [1] was determined as 5350 nM; in assay [2], 246 nM.

As a reminder, the IC50 is the point on the concentration scale where inhibition reaches its midpoint.
